# Results: ChEMBL document CHEMBL1134132, “Development of potent and selective factor Xa inhibitors” (Bioorg Med Chem Lett, 2001)
# Key:
# [1] = target: Prothrombin (Homo sapiens, UniProt P00734); experiment: Inhibitory activity against thrombin(fIIa) in human plasma; assay type: cell-free
# [2] = target: Coagulation factor X (Homo sapiens, UniProt P00742); experiment: Inhibitory activity against Coagulation factor X in human plasma; assay type: cell-free
# [3] = target: Serine protease 1 (Homo sapiens, UniProt P07477); experiment: Inhibitory activity against trypsin in human plasma; assay type: cell-free
# [4] = target: Plasminogen (Homo sapiens, UniProt P00747); experiment: Inhibitory activity against plasmin in human plasma; assay type: cell-free
# [5] = target: Urokinase-type plasminogen activator (Homo sapiens, UniProt P00749)
# [6] = In vitro anticoagulant effect to double the activated partial thromboplastin time in human plasma; assay type: functional
# Plasminogen, sequence (P00747 97-580 limits assumed): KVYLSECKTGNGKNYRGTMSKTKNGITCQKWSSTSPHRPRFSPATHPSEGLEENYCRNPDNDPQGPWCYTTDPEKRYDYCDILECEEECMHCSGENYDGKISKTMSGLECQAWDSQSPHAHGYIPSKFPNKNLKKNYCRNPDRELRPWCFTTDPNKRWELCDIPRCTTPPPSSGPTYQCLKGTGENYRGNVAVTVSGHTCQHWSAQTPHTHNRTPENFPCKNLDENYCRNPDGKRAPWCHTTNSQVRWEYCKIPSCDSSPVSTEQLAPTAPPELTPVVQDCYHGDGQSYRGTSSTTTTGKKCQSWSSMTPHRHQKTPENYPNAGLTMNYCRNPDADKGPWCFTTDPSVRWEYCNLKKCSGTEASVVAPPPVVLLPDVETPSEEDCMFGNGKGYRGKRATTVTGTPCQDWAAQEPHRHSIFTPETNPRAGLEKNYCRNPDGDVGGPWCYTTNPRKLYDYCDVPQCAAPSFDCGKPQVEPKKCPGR
# Plasminogen, sequence (P00747 581-810 limits assumed): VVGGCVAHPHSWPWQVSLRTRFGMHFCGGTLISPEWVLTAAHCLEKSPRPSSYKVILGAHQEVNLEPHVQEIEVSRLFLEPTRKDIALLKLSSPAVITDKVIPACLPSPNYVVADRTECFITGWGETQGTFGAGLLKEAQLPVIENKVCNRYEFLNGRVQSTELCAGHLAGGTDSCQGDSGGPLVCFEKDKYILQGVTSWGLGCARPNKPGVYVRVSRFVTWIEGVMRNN
# Serine protease 1, sequence (P07477 whole entry): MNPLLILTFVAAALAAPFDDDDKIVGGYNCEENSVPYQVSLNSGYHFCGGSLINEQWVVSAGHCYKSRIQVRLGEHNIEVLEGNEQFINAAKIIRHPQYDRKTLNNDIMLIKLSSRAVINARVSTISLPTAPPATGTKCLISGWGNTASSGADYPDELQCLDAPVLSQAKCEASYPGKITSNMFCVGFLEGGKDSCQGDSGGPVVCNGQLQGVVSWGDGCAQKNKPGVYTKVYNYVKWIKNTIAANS
# Coagulation factor X, sequence (P00742 41-179 limits assumed): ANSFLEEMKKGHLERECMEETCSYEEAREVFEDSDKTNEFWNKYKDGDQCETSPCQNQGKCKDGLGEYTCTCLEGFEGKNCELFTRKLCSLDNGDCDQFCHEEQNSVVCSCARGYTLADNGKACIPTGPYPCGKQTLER
# Coagulation factor X, sequence (P00742 235-488 limits assumed): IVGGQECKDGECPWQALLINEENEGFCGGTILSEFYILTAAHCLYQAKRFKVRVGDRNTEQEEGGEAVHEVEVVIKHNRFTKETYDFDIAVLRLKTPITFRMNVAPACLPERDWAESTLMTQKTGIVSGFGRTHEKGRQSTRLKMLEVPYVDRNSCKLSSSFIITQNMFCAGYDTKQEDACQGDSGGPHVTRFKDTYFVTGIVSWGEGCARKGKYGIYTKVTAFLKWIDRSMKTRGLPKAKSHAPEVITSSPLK
SMILES,Ki [1] [nM],Ki [2] [nM],Ki [3] [nM],Ki [4] [nM],Ki [5] [nM],2x aPPT [6] [µM]
O=C(O)CCc1cc(Br)c(O)c(-c2[nH]c3ccccc3c2Cc2ccccc2)c1,700000,300000,–,–,–,–
Cc1cc(Br)c(O)c(-c2[nH]c3ccc(C(=N)N)cc3c2CCCc2ccccc2)c1,6600,7600,42000,32000,8600,–
N=C(N)c1ccc2[nH]c(-c3cc(C(=O)O)cc(Br)c3O)c(Cc3ccccc3)c2c1,–,4,440,1500,–,0.55
NC(=O)c1ccc2[nH]c(-c3cc(CCC(=O)O)cc(Br)c3O)c(Cc3ccccc3)c2c1,78000,–,–,–,–,–
N=C(N)c1ccc2[nH]c(-c3cc(Br)cc(CCC(=O)O)c3)c(Cc3ccccc3)c2c1,12000,1000,–,–,–,–
N=C(N)c1ccc2[nH]c(-c3cc(Cc4nn[nH]n4)cc(Br)c3O)c(Cc3ccccc3)c2c1,440,20,840,2200,350,0.59
N=C(N)c1ccc2[nH]c(-c3cc(CCCC(=O)O)cc(Br)c3O)c(Cc3ccccc3)c2c1,40,0.7,610,1500,270,0.75
Cc1cc(-c2ccccc2)c(O)c(-c2cc3cc(C(=N)N)ccc3[nH]2)c1,4000,640,1800,1500,110,–
N=C(N)c1ccc2[nH]c(-c3cc(CC(N)=O)cc(Br)c3O)c(Cc3ccccc3)c2c1,25,2,–,–,–,–
N=C(N)c1ccc2[nH]c(-c3cc(-c4nn[nH]n4)cc(Br)c3O)c(Cc3ccccc3)c2c1,350,10,1300,4200,550,0.7
Cc1cc(C)c(O)c(-c2cc3cc(C(=N)N)ccc3[nH]2)c1,6900,1200,5000,10000,2300,–
Cc1ccc(O)c(-c2cc3cc(C(=N)N)ccc3[nH]2)c1,23000,–,8200,21000,12400,–

# Further compounds by falling Ki [1], results first:
Ki [1] [nM],Ki [2] [nM],Ki [3] [nM],Ki [4] [nM],Ki [5] [nM],SMILES,2x aPPT [6] [µM]
2500,45,–,–,–,COc1c(Br)cc(CCC(=O)O)cc1-c1[nH]c2ccc(C(=N)N)cc2c1Cc1ccccc1,–
1000,3,1200,1800,430,N=C(N)c1ccc2[nH]c(-c3cc(CC(=O)O)cc(Br)c3O)c(Cc3ccccc3)c2c1,0.38
750,10,1300,3000,350,CC(C)(C(=O)O)c1cc(Br)c(O)c(-c2[nH]c3ccc(C(=N)N)cc3c2Cc2ccccc2)c1,0.93
710,350,3400,8800,2300,Cc1cc(Br)c(O)c(-c2[nH]c3ccc(C(=N)N)cc3c2CCc2ccccc2)c1,–
460,130,700,1000,190,Cc1cc(Cl)c(O)c(-c2cc3cc(C(=N)N)ccc3[nH]2)c1,–
360,100,640,1200,110,Cc1cc(Br)c(O)c(-c2cc3cc(C(=N)N)ccc3[nH]2)c1,–
330,0.5,3800,1200,400,N=C(N)c1ccc2[nH]c(-c3cc(CCOP(=O)(O)O)cc(Br)c3O)c(Cc3ccccc3)c2c1,0.42
260,20,2400,4600,1600,Cc1cc(Br)c(O)c(-c2[nH]c3ccc(C(=N)N)cc3c2Cc2ccccc2)c1,3.9
120,0.5,600,1700,280,N=C(N)c1ccc2[nH]c(-c3cc(CCC(=O)O)cc(Br)c3O)c(Cc3ccccc3)c2c1,0.52
80,3,–,–,–,COC(=O)Cc1cc(Br)c(O)c(-c2[nH]c3ccc(C(=N)N)cc3c2Cc2ccccc2)c1,–
43,2,–,–,–,CN(C)C(=O)Cc1cc(Br)c(O)c(-c2[nH]c3ccc(C(=N)N)cc3c2Cc2ccccc2)c1,–
